The values below come from PMC3034772 (Pharmaceutical research, 2010).

“And” between values parts separate entries of the source, which are not always exact repeats. Equal entries are not always repeated. Where two headings read alike, the source gives them in different places.

What is called pKa is the negative logarithm of the acid dissociation constant.

Series [1] can be described thus: Charge class Q, dominant calculated charge state at pH 7.4. The series is classed as physicochemical.
A short description of series [2]: In combo PAMPA-BBB model, calculated log Po in situ.
The conditions of series [3]: PAMPA; for Pm^7.4: pH 7.4. In general terms: In PAMPA a lipid-coated filter parts donor from acceptor wells.
The conditions of series [4]: in vivo.
For series [5] the following is noted: cited from earlier work.
Series [6] can be described thus: pKa determination, potentiometric. As to conditions: this work, 25°C, […] KCl (footnote b).
The conditions of series [7]: PAMPA.
The next series in a line: physchem. As to conditions: pKa.
For series [8] the following is noted: cited from earlier work. This is another data set of the same source.
The nature of series [9]: In situ brain perfusion permeability. Particulars: from literature PS.
A short description of series [10]: In situ brain perfusion, individual literature values. Particulars: from literature PS.
The conditions of series [11]: ref [38], cited from earlier work.
For series [12] the following is noted: PAMPA; for Pm^7.4: pH 7.4. This is another data set of the same source.
The conditions of series [13]: mouse, in vivo.
For series [14] the following is noted: cited from earlier work. This is another data set of the same source.
The next series is described as follows: PAMPA-BBB Type II. As to conditions: 3 μL lipid-volume coated filters.
Where [15] appears, read: dominant calculated concentration fraction of the drug in a charge state.
Where [16] appears, read: efflux inhibition column: not satbl.

As to `O=C(O)CCCc1ccc(N(CCCl)CCCl)cc1` [Chlorambucil], the “Q (charge class)” value in [1] is on record as “−”. Further, in series [2], the “obs–calc (log Po^in situ)” value is reported as 0.3. In addition, in series [3], the “log PABL” value is given as −2.87, the “log Po” value is on record as −2.45, the “log Ppara” value is given as −7.16 and the “Pm^7.4” value was 6. The “log Po^in situ (obs)” value in series [4] was −0.80. Besides, in series [5] (in vivo), the PS is on record as 250 10^−4 mLg^−1s^−1 and the “log PS” value is given as −1.60. The molecule also registered a pKa in series [6] (second pKa column) of 4.28. In series [6], this molecule gave a pKa of 4.6.

With `CN/C(=N/CCSCc1nc[nH]c1C)NC#N` [Cimetidine], in series [1] (setting [15]), the “Q (charge class)” value is reported as 0. The “obs–calc (log Po^in situ)” value in series [2] (efflux inhibition bcrp(−/−)) was −0.4; in series [2] (efflux inhibition mdr1a(−/−)), 0.0; in series [2] (no efflux inhibition), −0.4 and −0.2. The “log PABL” value in [7] was −4.62. Also, the “log Po” value in [7] is −6.40. Further, the “Pm^7.4” value in series [7] (pH 7.4) is given as 0.4. This molecule came in with a pKa in the series “physchem” of 6.13. For the same molecule, the PS in series [8] (efflux inhibition bcrp(−/−)) is on record as 1 10^−4 mLg^−1s^−1. Moreover, the “log PS” value in series [8] (efflux inhibition bcrp(−/−)) is on record as −4.08. In addition, in series [9] (efflux inhibition bcrp(−/−)), the “log Po^in situ (obs)” value was −5.95.

As for `COc1cccc2c1C(=O)c1c(O)c3c(c(O)c1C2=O)C[C@@](O)(C(=O)CO)C[C@@H]3O[C@H]1C[C@H](N)[C@H](O)[C@H](C)O1` [Doxorubicin], the “Q (charge class)” value in [1] (setting [15]) is listed as “+”. The results for the “obs–calc (log Po^in situ)” value in series [2] (efflux inhibition mdr1a(−/−)), in series [2] (efflux inhibition mrp1(−/−)) and in series [2] (efflux inhibition verapamil) were 1.7, 1.4 and 1.6, respectively. In addition, in series [3], the “log PABL” value was −4.61. In addition, the “log Po” value in series [3] is −4.23. The “log Ppara” value in series [3] was −12. For the same molecule, in [3], the “Pm^7.4” value was 0.3. The PS in series [8] (efflux inhibition mrp1(−/−)) was 2 10^−4 mLg^−1s^−1; in series [5] (efflux inhibition verapamil), 4 10^−4 mLg^−1s^−1. Also, the figures for the “log PS” value in series [8] (efflux inhibition mrp1(−/−)) and in series [5] (efflux inhibition verapamil) were −3.66 and −3.44, respectively. Besides, the “log Po^in situ (obs)” value in series [9] (efflux inhibition mrp1(−/−)) is listed as −3.35; in series [10] (efflux inhibition verapamil), −3.14.

In series [6], `CNCCC(Oc1ccc(C(F)(F)F)cc1)c1ccccc1` (stereo not drawn) [Fluoxetine] came in with a pKa of 9.79.

As for `CC(C(=O)O)c1ccc(-c2ccccc2)c(F)c1` (stereo not drawn) [Flurbiprofen], the “Q (charge class)” value in series [1] (setting [15]) is reported as “−”. The “obs–calc (log Po^in situ)” value in [2] (setting [16]) is given as 0.0. Besides, in series [3], the “log PABL” value was −2.84, the “log Po” value is given as −2.35, the “log Ppara” value is recorded as −6.99 and the “Pm^7.4” value came to 3. Also, in [11], the pKa was 4.18. Moreover, in series [5] (in vivo), the PS is listed as 158 10^−4 mLg^−1s^−1 and the “log PS” value is listed as −1.80. For the same molecule, in series [10] (setting [16]), the “log Po^in situ (obs)” value is reported as −0.58.

In the case of `CC(C)n1c(/C=C/C(O)CC(O)CC(=O)O)c(-c2ccc(F)cc2)c2ccccc21` (stereo not drawn) [Fluvastatin Acid], the “Q (charge class)” value in series [1] (setting [15]) is reported as “−”. For the same molecule, the “obs–calc (log Po^in situ)” value in [2] (no efflux inhibition) is on record as 0.9. Further, in series [12], the “log Po” value is reported as −3.56 and the “Pm^7.4” value stood at 0.2.

On to `OCCOCCN1CCN(C(c2ccccc2)c2ccc(Cl)cc2)CC1` (stereo not drawn) [Hydroxyzine], for which the “Q (charge class)” value in series [1] (setting [15]) is listed as 0. The “obs–calc (log Po^in situ)” value in series [2] (efflux inhibition CsA) is given as 0.6. Further, the “obs–calc (log Po^in situ)” value in series [2] (no efflux inhibition) is given as 0.7. For the same molecule, in [3], the “log PABL” value is recorded as −3.26, the “log Po” value is recorded as −3.72, the “log Ppara” value is reported as −8 and the “Pm^7.4” value was 82. The pKa in series [11] was 7.52. Also, in [11] (second pKa column), the pKa is recorded as 2.66. Also, in [5] (efflux inhibition CsA), the PS is reported as 393 10^−4 mLg^−1s^−1 and the “log PS” value was −1.41. For the same molecule, in [10] (efflux inhibition CsA), the “log Po^in situ (obs)” value is given as −3.04.

Consider `CCOC(=O)C1(c2ccccc2)CCN(C)CC1` [Meperidine], for which the “Q (charge class)” value in series [1] is reported as “+”. Besides, the “obs–calc (log Po^in situ)” value in series [2] is given as −0.5. Also, in [12], the “log Po” value was −1.68. For the same molecule, in series [12], the “Pm^7.4” value worked out at 1290. Further, the figures for the “log Po^in situ (obs)” value in [13] and in [4] were −2.08 and −2.05, respectively. The PS in series [8] (mouse, in vivo) was 525 10^−4 mLg^−1s^−1; in [5] (in vivo), 549 10^−4 mLg^−1s^−1. Also, the “log PS” value in series [8] (mouse, in vivo) is reported as −1.28; in series [5] (in vivo), −1.26.

Take `CCC(=O)C(CC(C)N(C)C)(c1ccccc1)c1ccccc1` (stereo not drawn) [Methadone]: the “log Po” value in [12] is −2.18.

As to `O=C1C[C@@H](c2ccc(O)cc2)Oc2cc(O)cc(O)c21` [Naringenin], the “Q (charge class)” value in series [1] (setting [15]) is listed as 0. Also, the “obs–calc (log Po^in situ)” value in [2] (efflux inhibition PSC833) is 0.0. In [3], the “log PABL” value is −4.00, the “log Po” value is recorded as −3.94, the “log Ppara” value is given as −6.93 and the “Pm^7.4” value was 33. Besides, the pKa in “physchem” was found to be 10.4. Also, in series [5] (in vivo), the PS is reported as 105 10^−4 mLg^−1s^−1 and the “log PS” value is recorded as −1.98. The “log Po^in situ (obs)” value in series [10] (efflux inhibition PSC833) is −3.96.

As to `O=c1c(O)c(-c2ccc(O)c(O)c2)oc2cc(O)cc(O)c12` [Quercetin], the “Q (charge class)” value in series [1] (setting [15]) is 0. Besides, in series [2] (difference observed minus calculated, external set, no efflux inhibition), the “obs–calc (log Po^in situ)” value is on record as −0.4. Also, in series [2] (efflux inhibition GF120918), the “obs–calc (log Po^in situ)” value is 0.7. In addition, in [2] (efflux inhibition: PSC833), the “obs–calc (log Po^in situ)” value is on record as −0.3. In [3], the “log PABL” value was −4.92, the “log Po” value was −4.40, the “log Ppara” value is recorded as −6.87 and the “Pm^7.4” value is reported as 5. This molecule returned a pKa in the series “physchem” of 9.4. In series [14] (efflux inhibition: PSC833), the PS is recorded as 2 10^−4 mLg^−1s^−1 and the “log PS” value is −3.67. Further, in [5] (efflux inhibition GF120918), the PS is reported as 22 10^−4 mLg^−1s^−1 and the “log PS” value is on record as −2.65. Also, the “log Po^in situ (obs)” value in series [10] (efflux inhibition GF120918) is given as −4.03.

For `C=C[C@H]1C[N@@]2CC[C@H]1C[C@@H]2[C@@H](O)c1ccnc2ccc(OC)cc12` [Quinidine], the “Q (charge class)” value in series [1] (setting [15]) is “+”. Also, the PS in series [14] (rat, in vivo) was 4 10^−4 mLg^−1s^−1.

With `COc1ccc(C(CN(C)C)C2(O)CCCCC2)cc1` (stereo not drawn) [Venlafaxine], in [1], the “Q (charge class)” value is “+”. In series [2], the “obs–calc (log Po^in situ)” value is listed as 0.6. Also, the “log Po^in situ (obs)” value in series [4] was −1.66. In series [5] (in vivo), the PS is 104 10^−4 mLg^−1s^−1 and the “log PS” value is listed as −1.98. Further, the “log Po” value in “PAMPA-BBB Type II” (PAMPA-BBB intrinsic permeability, Type II and I/II) is −2.17. Besides, in the series “PAMPA-BBB Type II” (aqueous boundary layer permeability, Type II and I/II), the “log PABL” value is −3.22. The “Pm^7.4” value in “PAMPA-BBB Type II” (membrane permeability at pH 7.4, Type II and I/II) stood at 32.

Consider `CC[C@]1(O)C[C@@H]2CN(CCc3c([nH]c4ccccc34)[C@@](C(=O)OC)(c3cc4c(cc3OC)N(C)[C@H]3[C@@](O)(C(=O)OC)[C@H](OC(C)=O)[C@]5(CC)C=CCN6CC[C@]43[C@@H]65)C2)C1` [Vinblastine], for which, in series [1] (setting [15]), the “Q (charge class)” value is 0. Also, the “obs–calc (log Po^in situ)” value in series [2] (efflux inhibition GF120918) is 0.2; in [2] (efflux inhibition PSC833), 0.1; in [2] (efflux inhibition mdr1a(−/−)), 0.2 and 0.4. The “log PABL” value in series [3] is −3.25. Besides, the “log Po” value in [3] is −4.36. Moreover, the “log Ppara” value in series [3] is −5.54. The “Pm^7.4” value in series [3] is given as 32. In addition, the PS in series [5] (efflux inhibition GF120918) is 6 10^−4 mLg^−1s^−1; in [5] (in vivo), 4 10^−4 mLg^−1s^−1. The “log PS” value in series [5] (efflux inhibition GF120918) is −3.25; in [5] (in vivo), −3.37. In addition, the “log Po^in situ (obs)” value in series [10] (efflux inhibition GF120918) was −4.94; in [10] (efflux inhibition PSC833) it was −5.06.

For `CC[C@]1(O)C[C@H]2CN(CCc3c([nH]c4ccccc34)[C@@](C(=O)OC)(c3cc4c(cc3OC)N(C=O)[C@H]3[C@@](O)(C(=O)OC)[C@H](OC(C)=O)[C@]5(CC)C=CCN6CC[C@]43[C@@H]65)C2)C1` [Vincristine], the “Q (charge class)” value in [1] (setting [15]) is listed as 0. The “obs–calc (log Po^in situ)” value in series [2] (efflux inhibition mdr1a(−/−)) was −0.1. Further, the “obs–calc (log Po^in situ)” value in series [2] (efflux inhibition mrp1(−/−)) is on record as −0.5. In addition, in series [3], the “log PABL” value is listed as −4.62, the “log Po” value was −4.54, the “log Ppara” value is reported as −7.67 and the “Pm^7.4” value was found to be 14. In addition, in series [8] (efflux inhibition mrp1(−/−)), the PS is on record as 1 10^−4 mLg^−1s^−1 and the “log PS” value was −4.25. In addition, the “log Po^in situ (obs)” value in [9] (efflux inhibition mrp1(−/−)) is given as −5.95.

In the case of `NC(Cc1ccc(F)cc1)C(=O)O` (stereo not drawn) [p-F-Phenylalanine], in series [1], the “Q (charge class)” value is given as “±”. In addition, in series [12], the “log Po” value is −6.13 and the “Pm^7.4” value is 0.7.
